Laboratory results as given in patent publication US10030256B2, “Method for producing lysophosphatidylethanolamine 18:1 from microorganism of Pseudomonas sp” (KOREA RESEARCH INSTITUTE OF BIOSCIENCE AND BIOTECHNOLOGY, priority 2015, dated 2018).

Legend:
Pst-avrRpm1 = experiment: Recovery of local immune response in pla2α mutant plant by exogenous lipid after Pst-avrRpm1 inoculation; format: in vivo, Arabidopsis thaliana; conditions: for complementation of impaired local immunity of pla2α mutant plants (bacterial growth assay): FIG. 3B
Experimental: Arabidopsis plant was cultivated at temperature of 22° C. and relative humidity of 60% with conditions including 16 hours of light period and 120 μmoles m^−2s^−1 of photon flux density. Because the plant defense response is age-dependent, fully mature leaves of the 4 week old plant were used for various analyses. Arabidopsis (Arabidopsis thaliana) mutants including pla2α, pla2α-II, sid2, npr1-5, rps2 and ein2 (Salk_099415, CS857021, Salk_042603, CS3724, Salk_087581, CS3071 and CS8072, respectively) were purchased from Arabidopsis Biological Resource Center, USA. Arabidopsis mutants eds1 and pad4-5 were obtained from S. A. Whitham (Iowa State University, USA) and J. E. Parker (Max Planck Institute for Plant Breeding Research, Germany), respectively. The transgenic line expressing NPR1-eGFP and NahG were obtained from X. Dong (Duke University, USA) and O. M. Park (Korea University, South Korea), respectively.
(§1) Pseudomonas syringae pv. tomato DC3000 (hereinbelow, Pst) and Pst-avrRpm1, which is avrRpm1-containing bacterial strain with no virulency, were obtained from Y. J. Kim (Korea University, South Korea). Pst-avrRpt2, which is avrRpt2-containing bacterial strain with no virulency, was obtained from J. M. Park (KRIBB, South Korea) and Pst-avrRps4, which is avrRps4-containing bacterial strain with no virulency, was obtained from R. Innes (Indiana University, USA). The bacterial strains were cultured and treated according to the method of Katagiri, et al. (Arabidopsis Book, 2002, 1:e0039).
(§2) Every phospholipid was purchased from Avanti Polar Lipids Inc. (USA), and free fatty acids (16:0, 18:0 and 18:1) were purchased from Sigma Co. (USA). The solvent was dried under nitrogen gas stream, and the lipids were suspended therein according to ultrasonication so as to have final concentration of 100 nmol ml^−1 in 0.018% silwet L-77 (or 200 nmol ml^−1 in H2O).
(§3) Based on the analysis of pla2α mutant plants compared to wild type, we hypothesized that the defect in immune responses of the pla2α mutant may be due to the failure to generate the lipid products that mediate downstream immune responses. To test this hypothesis, we supplemented pla2α mutant with LPE18:1 1.5 h after inoculation of Pst-avrRpm1. […] Very importantly, LPE by itself renders local immunity in the absence of avirulent Pst (FIGS. 3C-3E). […] In addition, disease symptoms were much reduced in LPE-sprayed leaves compared to mock-treated ones (FIG. 3E).

virulent Pst = experiment: Acquirement of local immunity against virulent Pst by treatment with only LPE; format: in vivo, Arabidopsis thaliana; conditions: for bacterial growth of virulent Pst: compared to mock treatment
Experimental: as §1, §2, §3

Pst = experiment: In vitro antibacterial activity against Pst; format: cell-based, Pseudomonas syringae pv. tomato DC3000
Experimental: In order to determine the antibacterial activity of PLA2α, 3 μg of recombinant PLA2α in free and mature form, which has been prepared according to the method by Ryu et al. (Biochem Biophys Acta. 2005, 1736:144-151), was added to 100 μl of a solution (Tris-HCl (50 mM, pH 8.0), 10 mM calcium chloride (CaCl2)) in which virulent Pst (5×10^5 CFU ml^1) is suspended. The bacteria sample was cultured in a weak shaking state at 28° C. for 6 hours. Thereafter, only the survived bacteria were titrated. As a mock control group, a suspension in which the bacteria are suspended in a solution having no PLA2α was used.

[1] = suppression of aging; cited from earlier work
NPR1 = NPR1 transition in transgenic plant carrying 35S::NPR1-eGFP; format: in vivo, Arabidopsis thaliana; conditions: 35S::NPR1-eGFP transgenic plants, observed 6 hours after spraying
Experimental: NPR1 transition was determined by spraying LPE (100 nmol ml^−1 in 0.018% Silwet L-77), salicylic acid (0.3 mM in 0.018% Silwet L-77), or mock solution (0.018% Silwet L-77) to a transgenic plant carrying 35S::NPR1-eGFP, and observing, 6 hours later, the plant leaf with a laser scanning confocal microscope (Zeiss, Germany).

[2] = test system: PR1, PDF1.2, VSP1, JMT, ICS1, PAL1, ACS, LOX2; experiment: Gene expression analysis (RT-PCR / real-time qPCR) in Arabidopsis leaves after treatment; format: in vivo, Arabidopsis thaliana
Experimental: Total RNA was extracted by using RNA isolator (Gibco, USA) from a sample which has been frozen with liquid nitrogen (i.e., 2 leaves per sample). Reverse transcription polymerase chain reaction (RT-PCR) and real-time quantitative polymerase chain reaction (real-time qPCR) were carried out by using gene-specific primers. For the analysis of a real-time quantitative polymerase chain reaction, Applied Biosystems 7900 Real-Time PCR SYSTEM™ was used. 2×SYBR® Green qPCR master mix was used for PCT amplification. The analyzed data were normalized first against the amount of ACTIN1 gene, and the fold increase of gene expression according to treatment was determined in comparison with a mock or non-treatment plant (1.0 fold). Reference gene as an alternative (AT1G13320) was obtained from the previous study (Hong et al., 2010, Plant Cell Physiol. 51:1694-1706). The gene-specific primers that are used in the present invention are as described in Table 1 and Table 2 below.
as §2
(§4) The mature form of the recombinant PLA2α protein was produced in Escherichia coli which is fused with Dsbc protein. According to the method described before (Ryu et al., 2005, Biochem Biophys Acta. 1736:144-151), it was purified by affinity chromatography. The protein mixture in which PLA2α and Dsbc are separated from each other or Dsbc:PLA2α fusion protein (10 μgml^−1) was treated on the leaf of pla2α mutant by syringe infiltration, each in an amount of 0.5 μg. The enzyme activity of PLA2α was determined by in vitro analysis using substrate PE for a reaction mixture containing 10 mM Ca^2+ and 0.05% Triton X-100 in 50 mM Tris-HCl (pH 8.5). The mock-treated plant was infiltrated with a buffer (50 mM Tris-HCl, pH 8.0) or Dsbc protein. For inactivation of the PLA2α activity, recombinant PLA2α was pre-treated for 30 minutes at 30° C. with 2 μM manoalide as an irreversible inhibitor.

[3] = test system: salicylic acid, ethylene, and jasmonic acid; experiment: Quantification of salicylic acid, ethylene and jasmonic acid in Arabidopsis leaf; format: in vivo, Arabidopsis thaliana
From the text: According to the method described before (Bowling et al., 1994, Plant Cell 6:1845-1857; Heck et al., 2003, Plant J. 36:342-352), salicylic acid, ethylene, and jasmonic acid were quantified from 0.5 g of a Arabidopsis leaf sample which has been sprayed with Pst-avrRpm1 suspension (1×10^8 CFU ml^−1 in 0.018% Silwet L-77) or LPE (100 nmol ml^−1 in 0.018% Silwet L-77 or 200 nmol ml^−1 in H2O).

PLA2α = molecular target: T1, PLA2α (Arabidopsis thaliana, UniProt Q8S8N6); experiment: In vitro analysis of PLA2 activity (inactivation by manoalide); format: biochemical; conditions: 2 μM manoalide, 30 minutes at 30° C.
T1 construct: The mature form of the recombinant PLA2α protein was produced in Escherichia coli which is fused with Dsbc protein; DsbC; made in house; host or cells: Escherichia coli
T1 sequence (Q8S8N6 21-148): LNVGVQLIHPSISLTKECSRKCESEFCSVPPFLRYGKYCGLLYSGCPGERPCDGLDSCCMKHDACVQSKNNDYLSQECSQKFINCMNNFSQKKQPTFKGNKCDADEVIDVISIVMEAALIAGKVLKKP
Experimental: as §4

lysophosphatidylglycerol [LPG, reference compound]
complementation of impaired local immunity of pla2α mutant plants (bacterial growth assay) (Pst-avrRpm1): only a little

lysophosphatidylethanolamine 18:1 [LPE18:1]
disease symptoms (virulent Pst; LPE-sprayed leaves compared to mock-treated): much reduced | bacterial growth of virulent Pst (virulent Pst; pla2α mutant plants): suppressed the bacterial growth | bacterial growth of virulent Pst (virulent Pst; wild type plants): suppressed the bacterial growth | direct effect on bacterial growth in in vitro assays (Pst): no direct effect on bacterial growth | biological efficacy compared with LPE 16:0 or LPE 18:0 [1]: much higher biological efficacy | NPR1 translocation from the cytoplasm to the nucleus (NPR1): activated NPR1 by inducing its translocation from the cytoplasm to the nucleus | ACS gene expression ([2]; Arabidopsis leaves): exhibited ACS gene expression | LOX2 gene expression ([2]; Arabidopsis leaves): did not exhibit a significant increase in LOX2 gene expression | PAL1 expression ([2]; Arabidopsis leaves): did not elevate PAL1 expression | ICS1 gene expression ([2]; Arabidopsis leaves, 6 h post-treatment): displayed ICS1 gene expression | PR1 gene expression in the sid2 mutant plants ([2]; sid2 mutant): failed to induce PR1 gene expression | expression of the PR genes PR1 and PDF1.2 ([2]; wild type leaf, LPE vs mock, absence of avirulent Pst): induced the expression of the PR genes PR1 and PDF1.2 | JA levels ([3]; Arabidopsis leaves): did not exhibit a significant increase | ethylene levels ([3]; Arabidopsis leaves): an increase in ethylene levels | increase in SA levels ([3]; Arabidopsis leaves treated with LPE18:1): 2.5 fold | recovery of phenotypic defect of pla2α mutant plant (Pst-avrRpm1; FIG. 3A): recovery of phenotypic defect | complementation of impaired local immunity of pla2α mutant plants (bacterial growth assay) (Pst-avrRpm1): complemented by LPE | ability of the pla2α mutant to induce local immune responses (Pst-avrRpm1; pla2α mutant supplemented 1.5 h after inoculation of Pst-avrRpm1): restored the ability of the pla2α mutant to induce local immune responses

CC1=C(CC/C(C)=C/CCC2=CC[C@H](C3=CC(=O)O[C@H]3O)O[C@H]2O)C(C)(C)CCC1 [manoalide, reference compound]
inactivation of the PLA2α activity (PLA2α): Inactivation of the PLA2α activity caused by manoalide was confirmed | PR1 gene expression by rPLA2α catalytically inactivated with manoalide ([2]; rPLA2α pre-treated with PLA2 inhibitor manoalide): failed to induce PR1 gene expression

O=C(O)c1ccccc1O [SA, salicylic acid, reference compound]
NPR1 translocation from the cytoplasm to the nucleus (NPR1): as did SA treatment
